Measurements taken from US20080200461A1, “MODULATORS OF ACETYL-COENZYME A CARBOXYLASE AND METHODS OF USE THEREOF” (Cropsolution, Inc., priority 2007, published 2008).
Like-named read-outs stand apart in the source and are kept apart here.

How the values were obtained:
Stagonospora nodorum = assay: Fungicidal activity, microtiter plate agar growth assay; assay type: cell-based; settings: Parastagonospora nodorum, read-out: In vivo IC50 S. nodorum
Septoria tritici = assay: as above; assay type: cell-based; settings: Zymoseptoria tritici, read-out: In vivo IC50 S. tritici
Phytophthora infestans = assay: microbe, parasite or virus in culture; assay type: cell-based; settings: read-out: In vivo IC50 P. infestens
Botrytis cinerea = assay: Fungicidal activity, microtiter plate agar growth assay; assay type: cell-based; settings: read-out: In vivo IC50 B. cinerea
Ustilago maydis ACC = Ustilago maydis ACC (Mycosarcoma maydis, UniProt A0A0D1DYD5); assay: biochemical; assay type: biochemical
Sequence of Ustilago maydis ACC (A0A0D1DYD5 entry or part of it): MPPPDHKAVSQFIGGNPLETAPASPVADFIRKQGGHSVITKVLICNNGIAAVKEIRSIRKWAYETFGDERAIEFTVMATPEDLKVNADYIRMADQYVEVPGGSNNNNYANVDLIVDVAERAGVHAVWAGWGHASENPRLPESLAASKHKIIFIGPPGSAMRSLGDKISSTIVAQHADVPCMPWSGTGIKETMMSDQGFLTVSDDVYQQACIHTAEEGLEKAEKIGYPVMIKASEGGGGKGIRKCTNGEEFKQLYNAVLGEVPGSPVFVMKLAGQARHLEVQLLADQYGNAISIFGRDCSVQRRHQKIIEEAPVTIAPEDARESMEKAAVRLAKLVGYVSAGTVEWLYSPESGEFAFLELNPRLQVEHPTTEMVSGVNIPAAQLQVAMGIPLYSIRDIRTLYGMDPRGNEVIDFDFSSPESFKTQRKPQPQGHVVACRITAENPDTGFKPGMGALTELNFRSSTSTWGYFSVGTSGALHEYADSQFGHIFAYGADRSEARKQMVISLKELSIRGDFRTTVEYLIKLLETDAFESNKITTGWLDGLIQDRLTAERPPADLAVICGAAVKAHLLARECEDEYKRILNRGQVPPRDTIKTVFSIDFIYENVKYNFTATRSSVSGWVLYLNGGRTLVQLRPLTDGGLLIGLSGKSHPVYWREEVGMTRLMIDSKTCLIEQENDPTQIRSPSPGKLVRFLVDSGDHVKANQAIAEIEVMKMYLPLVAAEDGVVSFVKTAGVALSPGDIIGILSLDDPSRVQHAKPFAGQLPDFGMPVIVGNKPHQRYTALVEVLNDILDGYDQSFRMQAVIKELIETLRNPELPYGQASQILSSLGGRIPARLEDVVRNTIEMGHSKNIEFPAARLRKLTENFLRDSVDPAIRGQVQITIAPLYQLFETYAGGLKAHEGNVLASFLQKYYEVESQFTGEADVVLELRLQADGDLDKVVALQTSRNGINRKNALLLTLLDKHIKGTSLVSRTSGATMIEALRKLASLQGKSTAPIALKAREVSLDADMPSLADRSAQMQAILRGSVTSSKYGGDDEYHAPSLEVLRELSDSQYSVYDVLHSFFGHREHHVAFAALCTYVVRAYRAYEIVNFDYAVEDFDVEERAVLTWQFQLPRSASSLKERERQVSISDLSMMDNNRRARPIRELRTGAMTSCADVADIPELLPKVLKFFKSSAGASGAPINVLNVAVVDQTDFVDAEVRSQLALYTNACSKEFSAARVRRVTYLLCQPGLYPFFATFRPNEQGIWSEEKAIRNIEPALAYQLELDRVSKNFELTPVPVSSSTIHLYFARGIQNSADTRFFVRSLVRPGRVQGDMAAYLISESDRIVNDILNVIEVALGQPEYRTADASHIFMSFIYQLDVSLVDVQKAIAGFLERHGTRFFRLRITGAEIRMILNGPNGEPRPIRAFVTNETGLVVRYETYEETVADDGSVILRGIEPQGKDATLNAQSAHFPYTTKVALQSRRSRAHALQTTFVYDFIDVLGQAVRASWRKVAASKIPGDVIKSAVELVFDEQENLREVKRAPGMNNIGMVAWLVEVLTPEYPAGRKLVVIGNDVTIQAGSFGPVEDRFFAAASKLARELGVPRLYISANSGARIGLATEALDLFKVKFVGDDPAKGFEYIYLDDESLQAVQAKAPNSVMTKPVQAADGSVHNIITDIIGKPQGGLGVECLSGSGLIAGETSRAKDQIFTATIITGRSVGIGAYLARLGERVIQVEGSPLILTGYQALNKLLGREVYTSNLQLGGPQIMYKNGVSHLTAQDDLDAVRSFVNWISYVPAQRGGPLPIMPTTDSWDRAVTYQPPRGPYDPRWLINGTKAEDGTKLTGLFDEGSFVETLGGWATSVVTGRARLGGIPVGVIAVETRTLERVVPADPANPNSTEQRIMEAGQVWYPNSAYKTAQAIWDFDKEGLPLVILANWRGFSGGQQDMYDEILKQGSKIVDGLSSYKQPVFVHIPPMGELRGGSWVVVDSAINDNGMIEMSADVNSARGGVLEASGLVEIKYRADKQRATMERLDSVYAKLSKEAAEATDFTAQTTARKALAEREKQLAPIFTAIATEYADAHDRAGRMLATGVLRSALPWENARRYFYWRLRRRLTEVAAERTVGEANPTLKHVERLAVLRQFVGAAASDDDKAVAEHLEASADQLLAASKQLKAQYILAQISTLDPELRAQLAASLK

yeast wt BC domain = yeast wt BC domain (Saccharomyces cerevisiae, UniProt Q00955); assay: Tryptophan fluorescence binding assay; settings: for EC50: protein concentration = 200 nM
Sequence of yeast wt BC domain (Q00955 58-567): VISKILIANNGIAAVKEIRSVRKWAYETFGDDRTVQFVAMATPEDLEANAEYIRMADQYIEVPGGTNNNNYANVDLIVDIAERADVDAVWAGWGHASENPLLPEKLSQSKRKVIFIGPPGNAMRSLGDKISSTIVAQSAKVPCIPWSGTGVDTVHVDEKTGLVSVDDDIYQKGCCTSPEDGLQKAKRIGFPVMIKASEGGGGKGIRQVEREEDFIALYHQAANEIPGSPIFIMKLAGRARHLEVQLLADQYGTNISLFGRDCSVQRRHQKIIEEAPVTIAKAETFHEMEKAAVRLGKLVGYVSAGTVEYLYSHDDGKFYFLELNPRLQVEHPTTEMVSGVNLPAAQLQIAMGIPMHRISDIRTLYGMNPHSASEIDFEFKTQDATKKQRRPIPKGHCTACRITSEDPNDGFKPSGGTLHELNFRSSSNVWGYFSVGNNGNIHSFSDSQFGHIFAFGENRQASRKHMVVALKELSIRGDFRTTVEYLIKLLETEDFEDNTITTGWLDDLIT
Description: The soraphen binding pocket contains a tryptophan residue. Thus, tryptophan fluorescence may be used to directly monitor binding of a ligand to this site. […] We conducted a similar assay in a 96-well format. Briefly, 200 nM protein in 100 mM Tris pH 8 containing 100 mM NaCl and 0.01% Tween 20 (v/v) was incubated in the presence of various amounts of test compounds dissolved in DMSO (1% v/v final concentration). Tryptophan fluorescence at […] was measured in a Pherastar plate reader (BMG Labtech) using 280 nm excitation.

Ustilago maydis K53R ACC = Ustilago maydis K53R ACC (Mycosarcoma maydis, UniProt A0A0D1DYD5, K53R); assay: biochemical; assay type: biochemical; settings: K53R mutation that confers resistance to soraphen
Sequence of Ustilago maydis K53R ACC (A0A0D1DYD5 entry or part of it K53R): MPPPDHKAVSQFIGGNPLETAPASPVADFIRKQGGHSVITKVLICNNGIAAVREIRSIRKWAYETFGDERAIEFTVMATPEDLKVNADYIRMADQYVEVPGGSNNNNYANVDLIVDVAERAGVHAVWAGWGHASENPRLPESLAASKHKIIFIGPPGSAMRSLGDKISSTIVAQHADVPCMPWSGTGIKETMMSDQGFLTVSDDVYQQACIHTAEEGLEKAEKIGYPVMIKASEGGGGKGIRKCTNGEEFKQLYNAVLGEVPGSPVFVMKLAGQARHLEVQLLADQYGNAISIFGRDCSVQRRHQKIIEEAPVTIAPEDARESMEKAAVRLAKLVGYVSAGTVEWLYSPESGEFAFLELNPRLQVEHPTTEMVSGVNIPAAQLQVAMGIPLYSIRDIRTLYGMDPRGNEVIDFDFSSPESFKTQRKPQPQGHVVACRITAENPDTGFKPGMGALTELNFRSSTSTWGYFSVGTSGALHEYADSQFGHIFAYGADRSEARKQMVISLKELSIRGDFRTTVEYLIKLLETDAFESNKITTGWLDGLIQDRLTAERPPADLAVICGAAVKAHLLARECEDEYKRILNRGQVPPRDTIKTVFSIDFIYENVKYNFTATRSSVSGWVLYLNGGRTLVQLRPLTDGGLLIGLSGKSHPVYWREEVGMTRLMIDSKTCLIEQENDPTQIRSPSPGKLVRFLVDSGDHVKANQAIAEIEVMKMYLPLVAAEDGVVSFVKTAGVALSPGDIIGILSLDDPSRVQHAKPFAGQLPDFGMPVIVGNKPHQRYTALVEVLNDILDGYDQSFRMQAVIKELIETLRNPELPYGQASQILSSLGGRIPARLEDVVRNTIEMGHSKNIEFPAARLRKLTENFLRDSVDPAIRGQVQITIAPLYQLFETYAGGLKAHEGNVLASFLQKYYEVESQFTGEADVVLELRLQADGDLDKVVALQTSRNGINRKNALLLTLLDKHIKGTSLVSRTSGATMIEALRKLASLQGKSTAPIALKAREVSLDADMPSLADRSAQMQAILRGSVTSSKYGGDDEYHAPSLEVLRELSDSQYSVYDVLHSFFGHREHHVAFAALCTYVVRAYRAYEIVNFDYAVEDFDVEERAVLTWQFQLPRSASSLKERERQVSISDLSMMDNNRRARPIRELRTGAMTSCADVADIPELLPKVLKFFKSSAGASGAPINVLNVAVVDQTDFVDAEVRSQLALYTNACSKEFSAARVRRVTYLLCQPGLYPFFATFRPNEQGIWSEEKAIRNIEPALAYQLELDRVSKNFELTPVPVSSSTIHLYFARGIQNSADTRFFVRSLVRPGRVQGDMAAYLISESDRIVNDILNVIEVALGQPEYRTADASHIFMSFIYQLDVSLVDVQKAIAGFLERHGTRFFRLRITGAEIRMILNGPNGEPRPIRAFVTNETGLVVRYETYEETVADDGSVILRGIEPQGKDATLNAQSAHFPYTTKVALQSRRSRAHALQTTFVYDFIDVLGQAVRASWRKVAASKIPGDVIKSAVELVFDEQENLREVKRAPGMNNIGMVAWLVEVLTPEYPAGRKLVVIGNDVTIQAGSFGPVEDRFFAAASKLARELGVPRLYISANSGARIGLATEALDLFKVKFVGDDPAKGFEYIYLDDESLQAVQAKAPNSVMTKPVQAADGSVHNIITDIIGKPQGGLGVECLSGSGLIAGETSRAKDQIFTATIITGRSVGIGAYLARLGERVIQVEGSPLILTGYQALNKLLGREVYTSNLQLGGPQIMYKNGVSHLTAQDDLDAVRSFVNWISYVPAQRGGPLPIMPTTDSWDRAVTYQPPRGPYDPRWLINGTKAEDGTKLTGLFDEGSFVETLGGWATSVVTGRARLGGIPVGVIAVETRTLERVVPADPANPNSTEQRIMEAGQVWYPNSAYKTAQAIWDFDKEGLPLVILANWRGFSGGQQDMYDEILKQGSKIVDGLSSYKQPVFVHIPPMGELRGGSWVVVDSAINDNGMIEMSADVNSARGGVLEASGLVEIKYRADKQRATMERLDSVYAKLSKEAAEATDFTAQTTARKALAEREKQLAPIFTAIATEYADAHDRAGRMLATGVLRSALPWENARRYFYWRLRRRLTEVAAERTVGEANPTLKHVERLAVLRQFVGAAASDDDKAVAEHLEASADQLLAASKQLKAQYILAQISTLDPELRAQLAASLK

rat liver ACC [1] = target: T1, rat liver ACC (Rattus norvegicus, UniProt P11497); assay: Rat liver ACC activity, [14C]bicarbonate incorporation; assay type: biochemical
Source text: (§1) To test the effect of compounds against mammalian ACC both human and rat enzyme preparations were employed. ACC was purified from rat liver according to published protocols (Rubink and Winder, J Appl Physiol 98, 1221-1227 (2005); Trumble et al., Eur J Biochem 231, 192-198 (1995)). Rat liver contains both ACC1 and ACC2 in a ˜85:15 ratio, respectively (Harwood et al., J Biol Chem 278, 37099-37111 (2003)).

hACC1 = target: T2, hACC1 (Homo sapiens, UniProt Q13085); assay: Recombinant human ACC1 activity, [14C]bicarbonate incorporation; assay type: biochemical; settings: Table II; read-out: Enzyme Activity IC50 Human ACC1
T2 construct: we cloned full-length cDNAs for both the human isoforms (hACC1 and hACC2); His tag (from pET30a) (C); made in house; host or cells: sf9 insect cells (baculovirus)

hACC2 = target: T3, hACC2 (Homo sapiens, UniProt O00763); assay: Recombinant human ACC2 activity, [14C]bicarbonate incorporation; assay type: biochemical; settings: Table II; read-out: Enzyme Activity IC50 Human ACC2
T3 construct: delete amino acids 1-148 and add Met-Gly in front of Lys149 in the final product; His tag (from pET30a) (C); made in house; host or cells: sf9 insect cells (baculovirus)

rat liver ACC [2] = target: T1, rat liver ACC; assay: FP saturation binding assay
Source text: as §1

bacterial BC subunits = settings: literature; cited from earlier work
[3] = target: BC domain of eukaryotic ACCs; settings: literature; cited from earlier work
yeast BC domain = yeast BC domain (Saccharomyces cerevisiae, UniProt Q00955); settings: cited from earlier work
[4] = fungal growth on agar, 20° C., 3-5 days
[5] = Table I, read-out: In vitro IC50 U. maydis ACC activity
[6] = Table II, enzyme concentration 50 nM, read-out: Enzyme Activity IC50 U. maydis ACC
[7] = Table II, enzyme concentration 25 nM, ND = none detected, read-out: Enzyme Activity IC50 Rat liver ACC

| Compound | IC50 (Stagonospora nodorum; [4]) | IC50 (Septoria tritici; [4]) | IC50 (Phytophthora infestans) | IC50 (Botrytis cinerea; [4]) | IC50 (Ustilago maydis ACC; [5]) | IC50 (Ustilago maydis ACC; [6]) | IC50 (hACC1) | IC50 (hACC2) | also measured |
| --- | --- | --- | --- | --- | --- | --- | --- | --- | --- |
| C[N+]1(Cc2ccc(Cl)c(Cl)c2)CCN(CCCn2c(SCc3ccc(Cl)c(Cl)c3)nc3ccc(Br)cc3c2=O)CC1 [Compound 7] | 8 µM | 4.8 µM | 200 µM | 4300 nM | 17 µM |  |  |  |  |
| COc1cc2c(=O)n(CCCC[N+](C)(C)Cc3ccc(Br)cc3)c(=S)n(Cc3ccc(Br)cc3)c2c(OC)c1OC [Compound 15] | 8 µM | 4 µM | 18 µM | 2000 nM | 16 µM |  |  |  |  |
| Cc1cc(C)cc(CN(CCCC[N+](C)(C)Cc2cc(C)cc(C)c2)Cc2cc(C)cc(C)c2)c1 [Compound 19] | 64 µM | 22 µM | 25 µM | 7000 nM | 21 µM |  |  |  |  |
| COc1cc2c(=O)n(CCCC[N+](C)(CCC[N+](C)(C)Cc3cc(C)cc(C)c3)Cc3cc(C)cc(C)c3)c(SCc3cc(C)cc(C)c3)nc2c(OC)c1OC (centres unmarked) [Compound 22] | 4.6 µM | 4.4 µM | 35 µM | 6700 nM | 12 µM |  |  |  |  |
| Cc1cc(C)cc(CN(CC[N+](C)(C)Cc2cc(C)cc(C)c2)Cc2cc(C)cc(C)c2)c1 [Compound 25] | 5.8 µM | 10 µM | 18.2 µM | 1400 nM | 42 µM |  |  |  |  |
| Cc1cc(C)cc(CN(CCC[N+](C)(C)Cc2cc(C)cc(C)c2)Cc2cc(C)cc(C)c2)c1 [Compound 26] | 5 µM | 6 µM | 23.5 µM | 1000 nM | 39 µM |  |  |  |  |
| CC[N+](CC)(CCCCN(Cc1cc(C)cc(C)c1)Cc1cc(C)cc(C)c1)Cc1cc(C)cc(C)c1.[Br-] [Compound 28, Diethyl(3,5-dimethylbenzyl)[bis-(3,5-dimethylbenzyl)aminobutyl]ammonium formate] |  |  | 21.5 µM |  |  |  |  |  | IC50 (Stagonospora nodorum): 7.2 µM; IC50 (Septoria tritici): 11 µM; Effect on tryptophan fluorescence of yeast BC domain (yeast wt BC domain): quenched; EC50 (yeast wt BC domain): 11 µM; IC50 (Botrytis cinerea): 1800 nM; IC50 (Ustilago maydis ACC; Enzyme activity IC50 U. maydis wt ACC): 11 µM; IC50 (Ustilago maydis ACC; In vitro IC50 U. maydis ACC activity): 17 µM; Effect of K53R mutation on inhibition of ACC by compound (Ustilago maydis K53R ACC): confers resistance to inhibition |
| Cc1cc(C)cc(CN(CCCC[N+](C)(C)Cc2cc(C)cc(C)c2)S(=O)(=O)c2ccc(Br)cc2)c1 [Compound 61] |  |  |  |  |  | 9 µM |  |  |  |
| Cc1cc(C)cc(CN(CCCC[N+](C)(C)Cc2cc(C)cc(C)c2)C(=S)Nc2c(F)cccc2F)c1 [Compound 74] |  |  |  |  |  | 9 µM |  |  |  |
| CC[N+](CC)(CCCCN(Cc1cc(C)cc(C)c1)C(=O)c1cc(C)cc(C)c1)Cc1cc(C)cc(C)c1 [Compound 76] |  |  |  |  |  | 30 µM |  |  |  |
| CC[N+](CC)(CCCCN(Cc1cc(C)cc(C)c1)S(=O)(=O)c1ccc2ccccc2c1)Cc1cc(C)cc(C)c1 [Compound 85, Diethyl(3,5-dimethylbenzyl)[N-(3,5-dimethylbenzyl)-2-naphthalenesulfonamidobutyl]ammonium bromide] |  |  |  |  |  | 15 µM |  |  | IC50 (rat liver ACC [1]; [7]): 43 µM |
| CC[N+](CC)(CCCCN(Cc1cc(C)cc(C)c1)C(=O)c1ccc2ccccc2c1)Cc1cc(C)cc(C)c1 [Compound 133, Diethyl(3,5-dimethylbenzyl)[N-(3,5-dimethylbenzyl)-2-naphthalenecarboxamidobutyl]ammonium bromide] |  |  |  |  |  | 3 µM |  |  |  |
| CC[N+](CC)(CCCCN(Cc1ccc2c(c1)OCCO2)S(=O)(=O)c1ccc2ccccc2c1)Cc1cc(C)cc(C)c1.[Br-] [Compound 184] |  |  |  |  |  |  |  |  | Effect of K53R mutation on inhibition of ACC by compound (Ustilago maydis K53R ACC): confers resistance to inhibition |
| CC[N+](CC)(CCCCN(Cc1ccc2ccccc2c1)S(=O)(=O)c1cccc(Cl)c1Cl)Cc1cc(C)cc(C)c1 [Compound 237] |  |  |  |  |  | 1.4 µM | 12000 nM | 50 µM |  |
| CC[N+](CC)(CCCCN(Cc1ccc2ccccc2c1)C(=O)c1cc2cccc(OC)c2cc1OC)Cc1cc(C)cc(C)c1 [Compound 260] |  |  |  |  |  | 1.4 µM | 2800 nM | 11 µM |  |
| CC[N+](CC)(CCCCN(Cc1ccc2ccccc2c1)C(=O)c1sc2cccc(Cl)c2c1Cl)Cc1cc(C)cc(C)c1.[Br-] [Compound 322] |  |  |  |  |  | 0.04 µM | 250 nM | 1 µM | Effect of K53R mutation on inhibition of ACC by compound (Ustilago maydis K53R ACC): confers resistance to inhibition |
| CC[N+](CC)(CCCCN(Cc1ccc2ccccc2c1)C(=O)c1sc2c(Cl)c(OC)ccc2c1Cl)Cc1cc(C)cc(C)c1 [Compound 326] |  |  |  |  |  | 0.18 µM | 150 nM | 1.5 µM |  |
| CO[C@H]1CCCC[C@@H](c2ccccc2)OC(=O)[C@@H](C)[C@@]2(O)O[C@H]([C@@H](C)[C@H](O)[C@H]2OC)[C@@H](C)/C=C/[C@H]1OC [soraphen A, Soraphen A, reference compound] |  |  |  |  |  | 0.017 µM | 11 nM | 0.0027 µM | EC50 (yeast wt BC domain): 0.09 µM; Kd (rat liver ACC [2]): 3.2 nM; IC50 (Ustilago maydis ACC; Table III, enzyme concentration = 50 nM, read-out: Enzyme activity IC50 U. maydis wt ACC): 0.017 µM; IC50 (Ustilago maydis ACC; read-out: IC50 inhibition of fungal ACC): 0.017 µM; Effect on bacterial BC subunits (bacterial BC subunits): no effect; IC50 (rat liver ACC [1]; tight binding conditions, nominal enzyme concentration 25 nM, read-out: IC50 rat liver ACC activity): 0.014 µM; Kd [3]: ~1 nM; Kd (yeast BC domain): 1 nM |
| Diethyl(3,5-dimethylbenzyl)[N-(2-naphthylmethyl)-2-naphthalenesulfonamidobutyl]ammonium bromide [Compound 200] |  |  |  |  |  | 0.56 µM | 7600 nM | 22 µM | IC50 (rat liver ACC [1]; [7]): 11 µM |
